Experiments:
[1] = target: Delta-type opioid receptor (Rattus norvegicus) (UniProt P33533); test: (§1) Selectivity ratio of binding affinity of delta opioid receptor to mu opioid receptor
[2] = target: Delta-type opioid receptor (Mus musculus) (UniProt P32300); test: Selectivity ratio of IC50(MVD) to IC50(GPI) was determined
Mus musculus [3] = test: Antinociceptive activity in mice after subcutaneous injection in the first phase of formalin test; assay type: functional; details: sc
[4] = target: Mu-type opioid receptor (Cavia porcellus) (UniProt P97266); test: Affinity towards mu opioid receptor using CTAP as antagonist in guinea pig ileum; assay type: functional, tissue-based
Sequence of Mu-type opioid receptor (Cavia porcellus) (P97266 whole entry): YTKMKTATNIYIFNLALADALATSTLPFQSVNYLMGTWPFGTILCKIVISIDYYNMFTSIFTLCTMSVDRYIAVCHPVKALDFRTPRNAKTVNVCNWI

Mus musculus [5] = test: Antinociceptive activity in mice after subcutaneous injection in the second phase of formalin test; assay type: functional; details: sc
[6] = target: Delta-type opioid receptor (Mus musculus) (UniProt P32300); details: Vas deferens
Description: Affinity towards delta opioid receptor using CTAP as antagonist in mouse vas deferens

[7] = target: Delta-type opioid receptor (Mus musculus) (UniProt P32300); details: Vas deferens; remark: listed apart in the source
Description: Affinity towards delta opioid receptor using N,N(Me)2Dmt-Tic-OH as antagonist in mouse vas deferens

[8] = target: Delta-type opioid receptor (Mus musculus, UniProt P32300); test: Ability to inhibit electrically induced contractions of mouse vas deferens having delta opioid receptors tested in vitro; assay type: tissue-based
Sequence of Delta-type opioid receptor (Mus musculus, UniProt P32300) (P32300 whole entry): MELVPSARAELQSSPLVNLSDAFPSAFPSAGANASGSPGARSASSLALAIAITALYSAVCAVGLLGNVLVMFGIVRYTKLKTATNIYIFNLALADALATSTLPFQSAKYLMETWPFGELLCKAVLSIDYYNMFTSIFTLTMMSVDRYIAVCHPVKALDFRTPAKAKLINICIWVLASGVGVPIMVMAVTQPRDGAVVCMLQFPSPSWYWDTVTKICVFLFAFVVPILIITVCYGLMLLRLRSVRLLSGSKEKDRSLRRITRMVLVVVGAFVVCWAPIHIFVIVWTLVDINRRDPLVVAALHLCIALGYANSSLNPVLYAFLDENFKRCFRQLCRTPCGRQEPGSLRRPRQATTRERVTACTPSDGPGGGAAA

[9] = target: Delta-type opioid receptor (Rattus norvegicus, UniProt P33533); test: Ability to displace [3H]-deltorphin II from delta opioid receptor
Sequence of Delta-type opioid receptor (Rattus norvegicus, UniProt P33533) (P33533 whole entry): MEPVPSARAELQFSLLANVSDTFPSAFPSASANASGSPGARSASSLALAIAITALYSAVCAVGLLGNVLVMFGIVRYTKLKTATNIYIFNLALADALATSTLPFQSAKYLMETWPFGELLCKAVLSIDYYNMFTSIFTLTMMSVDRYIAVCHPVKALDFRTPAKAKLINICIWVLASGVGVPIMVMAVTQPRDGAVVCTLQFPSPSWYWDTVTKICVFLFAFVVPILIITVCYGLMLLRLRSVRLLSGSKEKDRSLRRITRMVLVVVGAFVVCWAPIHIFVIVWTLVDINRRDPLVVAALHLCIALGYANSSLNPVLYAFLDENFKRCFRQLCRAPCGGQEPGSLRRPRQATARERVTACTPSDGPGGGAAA

Mu-type opioid receptor [10] = target: Mu-type opioid receptor (Rattus norvegicus, UniProt P33535); test: Ability to displace [3H]DAMGO from mu opioid receptor
Sequence of Mu-type opioid receptor (Rattus norvegicus, UniProt P33535) (P33535 whole entry): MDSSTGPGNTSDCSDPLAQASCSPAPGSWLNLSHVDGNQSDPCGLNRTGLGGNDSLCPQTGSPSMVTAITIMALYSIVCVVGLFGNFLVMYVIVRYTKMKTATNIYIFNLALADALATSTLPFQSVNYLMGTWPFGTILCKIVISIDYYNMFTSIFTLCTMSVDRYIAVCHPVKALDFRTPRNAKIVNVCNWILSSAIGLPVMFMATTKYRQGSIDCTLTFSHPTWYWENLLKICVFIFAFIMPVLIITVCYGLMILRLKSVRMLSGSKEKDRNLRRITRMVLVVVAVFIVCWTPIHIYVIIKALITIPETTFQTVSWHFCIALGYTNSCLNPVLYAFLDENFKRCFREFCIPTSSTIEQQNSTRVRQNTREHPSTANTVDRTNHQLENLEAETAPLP

Mu-type opioid receptor [11] = target: Mu-type opioid receptor (Cavia porcellus, UniProt P97266); test: Ability to inhibit electrically induced contractions of guinea pig ileum having mu opioid receptors tested in vitro; assay type: tissue-based
Sequence of Mu-type opioid receptor (Cavia porcellus, UniProt P97266) (P97266 whole entry): as the sequence (P97266 whole entry) above

[12] = target: Prothrombin (Homo sapiens) (UniProt P00734); test: as §1

Sequence of Delta-type opioid receptor (Rattus norvegicus) (P33533 whole entry): as the sequence (P33533 whole entry) above
Sequence of Delta-type opioid receptor (Mus musculus) (P32300 whole entry): as the sequence (P32300 whole entry) above

SMILES | Ratio [1] | Ratio [2] | ED50 (Mus musculus [3]) | Ke [4] | ED50 (Mus musculus [5]) | Ke [6] | Ke [7] | IC50 [8] | Ki [9] | Ki (Mu-type opioid receptor [10]) | IC50 (Mu-type opioid receptor [11]) | Ratio [12]
Cc1cccc(C)c1C[C@@H](N)C(=O)N[C@H](CCCN=C(N)N)C(=O)N[C@@H](Cc1ccccc1)C(=O)NCCC(N)=O | > 370 | 4.6 | – | – | – | – | – | – | – | – | – | –
NC(=O)CCNC(=O)[C@H](Cc1ccccc1)NC(=O)[C@@H](CCCN=C(N)N)NC(=O)[C@@H](N)Cc1ccc(O)cc1 | 2800 | 21.8 | 0.628 µmol/kg | 26.8 nM | 0.514 µmol/kg | 21.2 nM | > 1000 nM | – | – | – | – | –
Cc1cccc(C)c1C[C@H](NC(=O)[C@@H](CCCN=C(N)N)NC(=O)[C@@H](N)Cc1ccc(O)cc1)C(=O)NCCC(N)=O | – | 16.7 | 0.0986 µmol/kg | 22.7 nM | 0.113 µmol/kg | 11.4 nM | > 1000 nM | 27.9 nM | 544 nM | 0.035 nM | 1.67 nM | 15500
CN1CC[C@]23c4c5ccc(O)c4O[C@H]2[C@@H](O)C=C[C@H]3[C@H]1C5 [MORPHINE] | – | – | 3.81 µmol/kg | – | 7.32 µmol/kg | – | – | – | – | – | – | –
Cc1cccc(C)c1C[C@@H](N)C(=O)N[C@H](CCCNC(=N)N)C(=O)N[C@@H](Cc1ccccc1)C(=O)NCCC(N)=O | – | – | – | – | – | – | – | 1470 nM | > 2820 nM | 7.62 nM | 320 nM | –
N=C(N)NCCC[C@@H](NC(=O)[C@@H](N)Cc1ccc(O)cc1)C(=O)N[C@@H](Cc1ccccc1)C(=O)NCCC(N)=O | – | – | – | – | – | – | – | 116 nM | 482 nM | 0.172 nM | 5.31 nM | –
CC(C)[C@H](NC(=O)[C@H](CCC(=O)O)NC(=O)[C@H](Cc1ccccc1)NC(=O)[C@H](C)NC(=O)[C@@H](N)Cc1ccc(O)cc1)C(=O)N[C@H](C(=O)NCC(=O)O)C(C)C | – | – | – | – | – | > 1000 nM | 0.64 nM | – | – | – | – | –
NC(=O)CCNC(=O)[C@H](Cc1ccccc1)NC(=O)[C@@H](CCCN=C(N)N)NC(=O)[C@@H](N)Cc1ccccc1 | > 393 | 11.2 | – | – | – | – | – | 7140 nM | > 2820 nM | 7.17 nM | 633 nM | –
Cc1cc(O)cc(C)c1C[C@H](N)C(=O)N[C@H](CCCN=C(N)N)C(=O)N[C@@H](Cc1ccccc1)C(=O)NCCC(N)=O | 551 | 11.7 | – | – | – | – | – | 0.398 nM | 1.13 nM | 0.00205 nM | 0.034 nM | –
Cc1cccc(C)c1C[C@H](NC(=O)[C@@H](CCCN=C(N)N)NC(=O)[C@@H](N)Cc1c(C)cccc1C)C(=O)NCCC(N)=O | 78100 | 18.2 | – | 21.3 nM | – | 10.2 nM | > 1000 nM | 50.1 nM | 1690 nM | 0.0216 nM | 2.76 nM | –
Cc1cccc(C)c1C[C@@H](NC(=O)[C@@H](CCCN=C(N)N)NC(=O)[C@@H](N)Cc1ccc(O)cc1)C(=O)NCCC(N)=O | > 45700 | 15.4 | – | – | – | – | – | 305 nM | > 2820 nM | 0.0618 nM | 19.8 nM | –
Cc1cccc(C)c1C[C@H](N)C(=O)N[C@H](CCCN=C(N)N)C(=O)N[C@@H](Cc1ccccc1)C(=O)NCCC(N)=O | 41300 | 19 | 1.95 µmol/kg | 25.1 nM | 1.53 µmol/kg | 13.4 nM | > 1000 nM | 188 nM | 2570 nM | 0.0623 nM | 9.88 nM | –
